Test results reported in patent US10792289B2 (Horizon Orphan LLC, priority 2009, dated 2020).

System: stable CF patients
Test: Phase 2 study: pulmonary function (FEV1, FVC, FEF 25-75)
Assay type: in vivo, human
Design: FEF 25-75, Median / FEV1, Day 14, Mean / FEF 25-75, Mean: unit not given here; FEV1, Day 1, Mean / FEV1, Day 1, Median / FEV1, Day 14, Median / FEV1, Day 28, Mean / FEV1, Day 28, Median: unit: L
Conditions: for Increase in FEF 25-75 / Increase in FEV1: median Day 1 to Day 28; for FEV1, Day 1, Mean / FEV1, Day 1, Median / FEV1, Day 14, Mean / FEV1, Day 14, Median / FEV1, Day 28, Mean / FEV1, Day 28, Median / FEV1, Percent Change from Baseline to Day 14, Mean / FEV1, Percent Change from Baseline to Day 14, Median / FEV1, Percent Change from Baseline to Day 28, Mean / FEV1, Percent Change from Baseline to Day 28, Median / % predicted FEV1, Mean / % predicted FEV1, Median: MITT population
Method: The following dosage regimens (as nebulizer loaded doses) were evaluated: 120 mg QD (daily); 240 mg QD (daily); and 240 mg BID (twice daily).
Efficacy endpoints including clinical endpoints, pulmonary function tests, and additional microbiological parameters were assessed as change from Day 1 to subsequent visits where the endpoint data was collected. Time to need for intravenous/oral/inhaled anti-pseudomonal antimicrobials were assessed from Day 1 until final visit using survival analysis. The primary population for efficacy analysis was the EE population, but efficacy endpoints were also analyzed using the MITT population.
Changes in FEV1 (forced expiratory volume in 1 second), FVC (forced vital capacity) and FEF 25-75 (forced expiratory flow 25-75%) from Day 1 to all subsequent visits were determined for patients. Tables 26 and 27 summarize the results for FEV1 measurements in EE and MITT populations, respectively. FIGS. 7 and 8 show graphs of percent change in FEV1 (L) and percent change in FEV1(L) vs. placebo, respectively, at Day 28 for the EET population treated with placebo, 120 mg QD, 240 mg QD, or 240 mg BID. […] Tables 28 and 29 summarize the results for predicted FEVI measurements in EE and MITT populations, respectively. Tables 30 and 31 summarize results for FEF 25-75 measurements in EE and MITT populations, respectively.

[1] = EE, 240 mg BID, Day 1 (baseline)
[2] = Day 1 (baseline), combined 240 mg QD and BID
[3] = Day 14, combined 240 mg QD and BID
[4] = Day 28, combined 240 mg QD and BID
[5] = MITT, 240 mg BID, Day 1 (baseline)

SMILES: C[C@H]1COc2c(N3CCN(C)CC3)c(F)cc3c(=O)c(C(=O)O)cn1c23 [Levofloxacin, levofloxacin]
- FEF 25-75, Median (EE population, Day 28, combined 240 mg QD and BID): 0.97
- FEF 25-75, Median (EE, 120 mg QD, Day 1): 0.98
- FEV1, median (EE, 120 mg QD, Day 1): 1.87 L
- FEF 25-75, Median (EE, 120 mg QD, Day 28): 1.03
- FEV1, median (EE, 120 mg QD, Day 28): 1.91 L
- Increase in FEF 25-75 (EE, 120 mg QD): approximately 5%
- Increase in FEV1 (EE, 120 mg QD): approximately 2%
- FEF 25-75, Median [1]: 0.68
- FEV1, median [1]: 1.70 L
- FEF 25-75, Median (EE, 240 mg BID, Day 28): 0.78
- FEV1, median (EE, 240 mg BID, Day 28): 1.79 L
- Increase in FEF 25-75 (EE, 240 mg BID): approximately 15%
- Increase in FEV1 (EE, 240 mg BID): approximately 5%
- FEF 25-75, Median (EE, 240 mg QD, Day 1): 1.10
- FEV1, median (EE, 240 mg QD, Day 1): 2.02 L
- FEF 25-75, Median (EE, 240 mg QD, Day 28): 1.15
- FEV1, median (EE, 240 mg QD, Day 28): 2.15 L
- Increase in FEF 25-75 (EE, 240 mg QD): approximately 4%
- Increase in FEV1 (EE, 240 mg QD): approximately 6%
- Largest difference for FEF 25-75, placebo vs levofloxacin (EE, Day 14): 0.25 L
- Largest difference for FEV1, placebo vs levofloxacin (EE, Day 14): 0.16 L
- Largest difference for FEF 25-75, placebo vs levofloxacin (EE, Day 28): 0.21 L
- Largest difference for FEV1, placebo vs levofloxacin (EE, Day 28): 0.24 L
- FEV1, Day 1, Mean (120 mg QD): 1.95
- FEV1, Day 1, Median (120 mg QD): 1.83
- FEV1, Day 14, Mean (120 mg QD): 1.97
- FEV1, Day 14, Median (120 mg QD): 1.79
- FEV1, Day 28, Mean (120 mg QD): 1.99
- FEV1, Day 28, Median (120 mg QD): 1.83
- FEV1, Percent Change from Baseline to Day 14, Mean (120 mg QD): 1.87%
- FEV1, Percent Change from Baseline to Day 14, Median (120 mg QD): 0.56%
- FEV1, Percent Change from Baseline to Day 28, Mean (120 mg QD): 1.92%
- FEV1, Percent Change from Baseline to Day 28, Median (120 mg QD): 1.60%
- FEV1, Day 1, Mean (240 mg BID): 1.88
- FEV1, Day 1, Median (240 mg BID): 1.70
- FEV1, Day 14, Mean (240 mg BID): 2.04
- FEV1, Day 14, Median (240 mg BID): 1.90
- FEV1, Day 28, Mean (240 mg BID): 1.93
- FEV1, Day 28, Median (240 mg BID): 1.82
- FEV1, Percent Change from Baseline to Day 14, Mean (240 mg BID): 9.34%
- FEV1, Percent Change from Baseline to Day 14, Median (240 mg BID): 7.51%
- FEV1, Percent Change from Baseline to Day 28, Mean (240 mg BID): 5.93%
- FEV1, Percent Change from Baseline to Day 28, Median (240 mg BID): 3.55%
- FEV1, Day 1, Mean (240 mg QD): 2.05
- FEV1, Day 1, Median (240 mg QD): 1.90
- FEV1, Day 14, Mean (240 mg QD): 2.12
- FEV1, Day 14, Median (240 mg QD): 2.04
- FEV1, Day 28, Mean (240 mg QD): 2.09
- FEV1, Day 28, Median (240 mg QD): 2.10
- FEV1, Percent Change from Baseline to Day 14, Mean (240 mg QD): 3.81%
- FEV1, Percent Change from Baseline to Day 14, Median (240 mg QD): 1.92%
- FEV1, Percent Change from Baseline to Day 28, Mean (240 mg QD): 2.35%
- FEV1, Percent Change from Baseline to Day 28, Median (240 mg QD): 1.28%
- FEV1, Day 1, Mean (Combined 240 mg QD and BID): 1.96
- FEV1, Day 1, Median (Combined 240 mg QD and BID): 1.80
- FEV1, Day 14, Mean (Combined 240 mg QD and BID): 2.08
- FEV1, Day 14, Median (Combined 240 mg QD and BID): 1.97
- FEV1, Day 28, Mean (Combined 240 mg QD and BID): 2.01
- FEV1, Day 28, Median (Combined 240 mg QD and BID): 1.95
- FEV1, Percent Change from Baseline to Day 14, Mean (Combined 240 mg QD and BID): 6.61%
- FEV1, Percent Change from Baseline to Day 14, Median (Combined 240 mg QD and BID): 3.94%
- FEV1, Percent Change from Baseline to Day 28, Mean (Combined 240 mg QD and BID): 4.14%
- FEV1, Percent Change from Baseline to Day 28, Median (Combined 240 mg QD and BID): 2.50%
- % predicted FEV1, Mean (Day 1 (baseline), 120 mg QD): 52.9%
- % predicted FEV1, Median (Day 1 (baseline), 120 mg QD): 53.0%
- % predicted FEV1, Mean (Day 1 (baseline), 240 mg BID): 48.8%
- % predicted FEV1, Median (Day 1 (baseline), 240 mg BID): 46.0%
- % predicted FEV1, Mean (Day 1 (baseline), 240 mg QD): 55.4%
- % predicted FEV1, Median (Day 1 (baseline), 240 mg QD): 56.0%
- % predicted FEV1, Mean [2]: 52.0%
- % predicted FEV1, Median [2]: 51.0%
- % predicted FEV1, Mean (Day 14, 120 mg QD): 53.9%
- % predicted FEV1, Median (Day 14, 120 mg QD): 53.0%
- % predicted FEV1, Mean (Day 14, 240 mg BID): 52.1%
- % predicted FEV1, Median (Day 14, 240 mg BID): 49.56%
- % predicted FEV1, Mean (Day 14, 240 mg QD): 57.1%
- % predicted FEV1, Median (Day 14, 240 mg QD): 61.0%
- % predicted FEV1, Mean [3]: 54.6%
- % predicted FEV1, Median [3]: 52.0%
- % predicted FEV1, Mean (Day 28, 120 mg QD): 54.1%
- % predicted FEV1, Median (Day 28, 120 mg QD): 50.0%
- % predicted FEV1, Mean (Day 28, 240 mg BID): 50.8%
- % predicted FEV1, Median (Day 28, 240 mg BID): 49.0%
- % predicted FEV1, Mean (Day 28, 240 mg QD): 56.7%
- % predicted FEV1, Median (Day 28, 240 mg QD): 54.0%
- % predicted FEV1, Mean [4]: 53.8%
- % predicted FEV1, Median [4]: 53.5%
- FEF 25-75, Median [5]: 0.68
- FEV1, median [5]: 1.70 L
- FEF 25-75, Median (MITT, 240 mg BID, Day 28): 0.82
- FEV1, median (MITT, 240 mg BID, Day 28): 1.82 L
- Increase in FEF 25-75 (MITT, 240 mg BID): approximately 20%
- Increase in FEV1 (MITT, 240 mg BID): approximately 7%
- FEF 25-75, Median (MITT, 240 mg QD, Day 1): 1.09
- FEV1, median (MITT, 240 mg QD, Day 1): 1.90 L
- FEF 25-75, Median (MITT, 240 mg QD, Day 28): 1.12
- FEV1, median (MITT, 240 mg QD, Day 28): 2.10 L
- Increase in FEF 25-75 (MITT, 240 mg QD): approximately 3%
- Increase in FEV1 (MITT, 240 mg QD): approximately 10%
- Largest difference for FEF 25-75, placebo vs levofloxacin (MITT, Day 14): 0.27 L
- Largest difference for FEV1, placebo vs levofloxacin (MITT, Day 14): 0.12 L
- Largest difference for FEF 25-75, placebo vs levofloxacin (MITT, Day 28): 0.21 L
- Largest difference for FEV1, placebo vs levofloxacin (MITT, Day 28): 0.25 L
